Test results from US8207172B2 (Bayer Intellectual Property GmbH, priority 2004, dated 2012).
Counter-ions that a name gives are not always drawn.

Experiments:
[1] = test system: A431 cells (human epidermoid carcinoma); assay: In vitro tumor cell proliferation assay (Cell Titer-Glo luminescent cell viability), A431; type: cell-based; details: A-431, 72 h, 72 hours of drug exposure, ATP luminescence readout, read-out: IC50, anti-proliferative activity (inhibition of cell proliferation)
Method in brief: (§1)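 Proliferation inhibition was measured as ATP-dependent luciferase signal after cells in RPMI with 10% FBS received test compound for 72 h at 37° C. Final concentrations spanned […] to 64 pM in 0.1% DMSO; IC50 values were derived.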

[2] = test system: BT474 (human breast carcinoma); assay: In vitro tumor cell proliferation assay (Cell Titer-Glo luminescent cell viability), BT474; type: cell-based; details: BT-474, 72 h, BT474 cells, 72 hours of drug exposure, ATP luminescence readout, read-out: IC50, anti-proliferative activity (inhibition of cell proliferation)
Method in brief: as §1

Work on `CN1CCN(CCn2cc3c(n2)CCc2c-3sc3ncnc(Nc4ccc(Br)c(Cl)c4)c23)CC1` [Example 50, N-(4-bromo-3-chlorophenyl)-2-[2-(4-methylpiperazin-1-yl)ethyl]-4,5-dihydro-2H-pyrimido[5′,4′:4,5]thieno[2,3-e]indazol-6-amine] yielded an IC50 [1] of at most 5 µM and an IC50 [2] of at most 5 µM.
`CN(C)CC(=O)N1CCC(Cn2cc3c(n2)CCc2c-3sc3ncnc(Nc4ccc(OCc5cccc(F)c5)c(Cl)c4)c23)CC1` [Example 241, N-{3-chloro-4-[(3-fluorobenzyl)oxy]phenyl}-2-({1-[(dimethylamino)acetyl]piperidin-4-yl}methyl)-4,5-dihydro-2H-pyrimido[5′,4′:4,5]thieno[2,3-e]indazol-6-amine trifluoroacetate] was tested, and the IC50 [1] was at most 5 µM and the IC50 [2] was at most 1 µM.
For `CN1CCN(CCn2cc3c(n2)CCc2c-3sc3ncnc(Nc4ccc5c(cnn5Cc5ccccc5)c4)c23)CC1` [Example 39, N-(1-benzyl-1H-indazol-5-yl)-2-[2 (4-methylpiperazin-1-yl)ethyl]-4,5-dihydro-2H-pyrimido[5′,4′:4,5]thieno[2,3-e]indazol-6-amine], the IC50 [1] was at most 50 µM and the IC50 [2] was at most 1 µM.
In the case of `OCCn1cc2c(n1)CCc1c-2sc2ncnc(Nc3ccc(OCc4cccc(F)c4)c(Cl)c3)c12` [Example 56, 2-[6-({3-chloro-4-[(3-fluorobenzyl)oxy]phenyl}amino)-4,5-dihydro-2H-pyrimido[5′,4′:4,5]thieno[2,3-e]indazol-2-yl]ethanol], the IC50 [1] is reported as at most 5 µM and the IC50 [2] is reported as at most 1 µM.
With `CN1CCN(C(=O)Cn2cc3c(n2)CCc2c-3sc3ncnc(Nc4ccc5c(cnn5Cc5cccc(F)c5)c4)c23)CC1` [Example 182, N-[1-(3-fluorobenzyl)-1H-indazol-5-yl]-2-[2-(4-methylpiperazin-1-yl)-2-oxoethyl]-4,5-dihydro-2H-pyrimido[5′,4′:4,5]thieno[2,3-e]indazol-6-amine] the IC50 [1] was at most 5 µM and the IC50 [2] was at most 1 µM.
`OCCn1ncc2c1CCc1c-2sc2ncnc(Nc3ccc4c(cnn4Cc4cccc(F)c4)c3)c12` [Example 289, 2-(6-{[1-(3-fluorobenzyl)-1H-indazol-5-yl]amino}-4,5-dihydro-3H-pyrimido[5′,4′:4,5]thieno[2,3-e]indazol-3-yl)ethanol] was tested, and the IC50 [1] was at most 5 µM and the IC50 [2] was at most 1 µM.
With `CNCCn1cc2c(n1)CCc1c-2sc2ncnc(Nc3ccc(OCc4ccccn4)c(Cl)c3)c12` [Example 107, N-[3-chloro-4-(pyridin-2-ylmethoxy)phenyl]-2-[2-(methylamino)ethyl]-4,5-dihydro-2H-pyrimido[5′,4′:4,5]thieno[2,3-e]indazol-6-amine] the IC50 [1] was at most 5 µM and the IC50 [2] was at most 1 µM.
`CN1CCC(n2cc3c(n2)CCc2c-3sc3ncnc(Nc4ccc(OCc5cccc(F)c5)c(Cl)c4)c23)CC1` [Example 228, N-{3-chloro-4-[(3-fluorobenzyl)oxy]phenyl}-2-(1-methylpiperidin-4-yl)-4,5-dihydro-2H-pyrimido[5′,4′:4,5]thieno[2,3-e]indazol-6-amine] was tested, and the IC50 [1] was at most 5 µM and the IC50 [2] was at most 1 µM.
`CN1CCN(CCn2cc3c(n2)CCc2c-3sc3ncnc(Nc4ccc(SCc5ccncc5)cc4)c23)CC1` [Example 342, 2-[2-(4-methylpiperazin-1-yl)ethyl]-N-{4-[(pyridin-4-ylmethyl)thio]phenyl}-4,5-dihydro-2H-pyrimido[5′,4′:4,5]thieno[2,3-e]indazol-6-amine] showed an IC50 [1] of at most 50 µM and an IC50 [2] of at most 5 µM.
`Fc1ccc(Nc2ncnc3sc4c(c23)CCc2c-4cnn2CCn2ccnc2)cc1Cl` [Example 97, N-(3-chloro-4-fluorophenyl)-3-[2-(1H-imidazol-1-yl)ethyl]-4,5-dihydro-3H-pyrimido[5′,4′:4,5]thieno[2,3-e]indazol-6-amine] gave an IC50 [1] of at most 5 µM and an IC50 [2] of at most 5 µM.
For `O=C(CN1CCNCC1)N1CCC(n2cc3c(n2)CCc2c-3sc3ncnc(Nc4ccc(OCc5cccc(F)c5)c(Cl)c4)c23)CC1` [Example 221, N-{3-chloro-4-[(3-fluorobenzyl)oxy]phenyl}-2-[1-(piperazin-1-ylacetyl)piperidin-4-yl]-4,5-dihydro-2H-pyrimido[5′,4′:4,5]thieno[2,3-e]indazol-6-amine], the IC50 [1] was at most 50 µM and the IC50 [2] was at most 1 µM.
Work on `COCCN1CCN(CCn2cc3c(n2)CCc2c-3sc3ncnc(Nc4ccc(F)c(Cl)c4)c23)CC1` [Example 25, N-(3-chloro-4-fluorophenyl)-2-{2-[4-(2-methoxyethyl)piperazin-1-yl]ethyl}-4,5-dihydro-2H-pyrimido[5′,4′:4,5]thieno[2,3-e]indazol-6-amine] yielded an IC50 [1] of at most 5 µM and an IC50 [2] of at most 5 µM.
With `OCCCn1ncc2c1CCc1c-2sc2ncnc(Nc3ccc(OCc4cccc(F)c4)c(Cl)c3)c12` [Example 268, 3-[6-({3-chloro-4-[(3-fluorobenzyl)oxy]phenyl}amino)-4,5-dihydro-3H-pyrimido[5′,4′:4,5]thieno[2,3-e]indazol-3-yl]propan-1-ol] the IC50 [1] was at most 50 µM and the IC50 [2] was at most 1 µM.
`CC(C)(C)OC(=O)N1CCC(Cn2cc3c(n2)CCc2c-3sc3ncnc(Nc4ccc(OCc5cccc(F)c5)c(Cl)c4)c23)CC1` [Example 231, tert-butyl 4-{[6-({3-chloro-4-[(3-fluorobenzyl)oxy]phenyl}amino)-4,5-dihydro-2H-pyrimido[5′,4′:4,5]thieno[2,3-e]indazol-2-yl]methyl}piperidine-1-carboxylate] showed an IC50 [1] of at most 50 µM and an IC50 [2] of at most 5 µM.
`CN1CCN(CCn2cc3c(n2)CCc2c-3sc3ncnc(Nc4ccc(OCc5cccc(C#N)c5)c(Cl)c4)c23)CC1` [Example 336, 3-{[2-chloro-4-({2-{2-(4-methylpiperazin-1-yl)ethyl]-4,5-dihydro-2H-pyrimido[5′,4′:4,5]thieno[2,3-e]indazol-6-yl}amino)phenoxy]methyl} benzonitrile] showed an IC50 [1] of at most 5 µM and an IC50 [2] of at most 1 µM.
`CCC(CC)CN1CCC(CCn2cc3c(n2)CCc2c-3sc3ncnc(Nc4ccc(OCc5cccc(F)c5)c(Cl)c4)c23)CC1` [Example 250, N-{3-chloro-4-[(3-fluorobenzyl)oxy]phenyl}-2-{2-[1-(2-ethylbutyl)piperidin-4-yl]ethyl}-4,5-dihydro-2H-pyrimido[5′,4′:4,5]thieno[2,3-e]indazol-6-amine] gave an IC50 [1] of at most 5 µM and an IC50 [2] of at most 1 µM.
`CC(C)N1CCC(n2cc3c(n2)CCc2c-3sc3ncnc(Nc4ccc(OCc5cccc(F)c5)c(Cl)c4)c23)CC1` [Example 227, N-{3-chloro-4-[(3-fluorobenzyl)oxy]phenyl}-2-(1-isopropylpiperidin-4-yl)-4,5-dihydro-2H-pyrimido[5′,4′:4,5]thieno[2,3-e]indazol-6-amine] gave an IC50 [1] of at most 5 µM and an IC50 [2] of at most 1 µM.
Molecule `CC(C)(C)[Si](C)(C)OCCn1cc2c(n1)CCc1c-2sc2ncnc(Nc3ccc(OCc4ccccn4)c(Cl)c3)c12` [Example 98, 2-(2-{[tert-butyl(dimethyl)silyl]oxy}ethyl)-N-[3-chloro-4-(pyridin-2-ylmethoxy)phenyl]-4,5-dihydro-2H-pyrimido[5′,4′:4,5]thieno[2,3-e]indazol-6-amine] has an IC50 [1] of at most 50 µM and an IC50 [2] of at most 1 µM.
Molecule `Cc1cccc(COc2ccc(Nc3ncnc4sc5c(c34)CCc3c-5cnn3CCN3CCN(C)CC3)cc2Cl)c1` [Example 320, N-{3-chloro-4-[(3-methylbenzyl)oxy]phenyl}-3-(2-(4-methylpiperazin-1-yl)ethyl]-4,5-dihydro-3H-pyrimido[5′,4′:4,5]thieno[2,3-e]indazol-6-amine trifluoroacetate] has an IC50 [1] of at most 5 µM and an IC50 [2] of at most 5 µM.
`COCCNCCn1ncc2c1CCc1c-2sc2ncnc(Nc3ccc4c(cnn4Cc4cccc(F)c4)c3)c12` [Example 297, N-[1-(3-fluorobenzyl)-1H-indazol-5-yl]-3-{2-[(2-methoxyethyl)amino]ethyl}-4,5-dihydro-3H-pyrimido[5′,4′:4,5]thieno[2,3-e]indazol-6-amine] showed an IC50 [1] of at most 5 µM and an IC50 [2] of at most 1 µM.
`CN1CCN(C(=O)Cn2ncc3c2CCc2c-3sc3ncnc(Nc4ccc(OCc5cccc(F)c5)c(Cl)c4)c23)CC1` [Example 205, N-{3-chloro-4-[(3-fluorobenzyl)oxy]phenyl}-3-[2-(4-methylpiperazin-1-yl)-2-oxoethyl]-4,5-dihydro-3H-pyrimido[5′,4′:4,5]thieno[2,3-e]indazol-6-amine] was tested, and the IC50 [1] was at most 5 µM and the IC50 [2] was at most 1 µM.
For `COC[C@@H]1CCCN1C[C@@H](O)Cn1cc2c(n1)CCc1c-2sc2ncnc(Nc3ccc(OCc4cccc(F)c4)c(Cl)c3)c12` [Example 140, (2R)-1-[6-({3-chloro-4-[(3-fluorobenzyl)oxy]phenyl}amino)-4,5-dihydro-2H-pyrimido[5′,4′:4,5]thienol[2,3-e]indazol-2-yl]-3-[(2S)-2-(methoxymethyl)pyrrolidin-1-yl]propan-2-ol], the IC50 [1] was at most 50 µM and the IC50 [2] was at most 1 µM.
`O=C(Cn1ncc2c1CCc1c-2sc2ncnc(Nc3ccc(OCc4cccc(F)c4)c(Cl)c3)c12)N(CCO)CCO` [Example 212, 2-[6-({3-chloro-4-[(3-fluorobenzyl)oxy]phenyl}amino)-4,5-dihydro-3H-pyrimido[5′,4′:4,5]thieno[2,3-e]indazol-3-yl]-N,N-bis(2-hydroxyethyl)acetamide] showed an IC50 [1] of at most 50 µM and an IC50 [2] of at most 1 µM.
`CN(C)C1CCN(CCn2ncc3c2CCc2c-3sc3ncnc(Nc4ccc5c(cnn5Cc5cccc(F)c5)c4)c23)C1` (centres unmarked) [Example 293, 3-{2-[3-(dimethylamino)pyrrolidin-1-yl]ethyl}-N-[1-(3-fluorobenzyl)-1H-indazol-5-yl]-4,5-dihydro-3H-pyrimido[5′,4′:4,5]thieno[2,3-e]indazol-6-amine] was tested, and the IC50 [1] was at most 50 µM and the IC50 [2] was at most 1 µM.
For `CS(=O)(=O)CCNCCn1cc2c(n1)CCc1c-2sc2ncnc(Nc3ccc(OCc4cccc(F)c4)c(Cl)c3)c12` [Example 78, N-{3-chloro-4-[(3-fluorobenzyl)oxy]phenyl}-2-(2-{[2-(methylsulfonyl)ethyl]amino}ethyl)-4,5-dihydro-2H-pyrimido[5′,4′:4,5]thieno[2,3-e]indazol-6-amine], the IC50 [1] was at most 5 µM and the IC50 [2] was at most 1 µM.
